In US5658880A, “Sialic acid/fucose based medicaments” (Glycomed Incorporated, priority 1994, dated 1997):
pIC50: −log10 of the molar value.

How the values were obtained:
L-selectin = assay: ELISA: inhibition of L-selectin-IgG chimera binding to 2,3 sLe^x glycolipid; set-up: species or system human; conditions: for pIC50: inhibition of binding to 2,3 sLex glycolipid; for inhibition of L-selectin binding to 2,3 sLe^x glycolipid: FIG. 5 and FIG. 6, result in words
Excerpt: (§1) An ELISA assay is preferably used that employs recombinant fusion proteins composed of extracellular portions of the human selectins joined to human immunoglobulin heavy chain CH3, CH2, and hinge regions. See, for example, Walz et al., Science (1990) 250:1132; Aruffo et al., Cell (1991) 67:35; Aruffo et al., Proc. Natl. Acad. Sci. USA. (1992) 89:2292. The assay is well known in the art, and generally consists of the following three steps:
(§2) I. 2,3 sLe^x glycolipid (25 picomole/well) was transferred into microtiter wells as solutions and then evaporated off. Excess, which remained unattached, was washed off with water. The wells were then blocked with 5% BSA at room temperature for an hour and then washed with PBS containing 1 mM calcium.
(§3) II. Preparation of "multivalent" receptor of the Selectin-lgG chimera was carried out by combining the respective chimera (1 μg/mL) with biotin labelled goat F(ab')2 anti-human IgG (Fc specific) and streptavidin-alkaline phosphatase diluted 1:1000 in 1% BSA-PBS (1 mM calcium) and incubating at 37° C. for 15 min. This allowed the soluble multivalent receptor complex to form. III. Potential inhibitors such as the compounds of formula I or II were allowed to react with the soluble receptor at 37° C. for 45 min. This test assumes that optimal binding, between the soluble phase receptor complex and the inhibitor (non natural ligand), would have occurred within this time frame. This solution was then placed in the microtiter wells that were prepared in step I. The plate was incubated at 37° C. for 45 minutes to allow the soluble receptor to bind to its natural ligand. In the presence of a strong inhibitor only a few receptors should be free to bind to the microtiter plate coated with the natural ligand.
(§4) The positive control is the signal produced by the soluble receptor when it is allowed to react with 2,3 sLe^x glycolipid in the microtiter wells in the absence of any inhibitor. This positive control was considered 100% binding. The signal produced by the receptor that had been previously treated with an inhibitor (recorded as O.D.), was divided by the signal produced by the positive control and multiplied by 100 to calculate the % receptor bound to the well in the presence of the inhibitor. The reciprocal of this number is the % inhibition.
as §1, with “was employed” for “is preferably used”, “uses” for “employs”, “USA” for “USA.”
(§5) II. Preparation of "multivalent" receptor of the Selectin-IgG chimera was carried out by combining the respective chimera 1 μg/ml) with biotin labelled goat F(ab')2 anti-human IgG (Fc specific) and streptavidin-alkaline phosphatase diluted 1:1000 in 1% BSA-PBS (1 mM calcium) and incubating at 37° C. for 15 min. This allowed the soluble multivalent receptor complex to form.
(§6) III. Potential inhibitors such as compounds of formula I or II were allowed to react with the soluble receptor at 37° C. for 45 min. This test assumes that optimal binding, between the soluble phase receptor complex and the inhibitor (non natural ligand), would have occurred within this time frame. This solution was then placed in the microtiter wells that were prepared in step I. The plate was incubated at 37° C. for 45 minutes to allow the soluble receptor to bind to its natural ligand. In the presence of a strong inhibitor only a few receptors should be free to bind to the microtiter plate coated with the natural ligand.
(§7) The positive control is the signal produced by the soluble receptor when it is allowed to react with 2,3 sLe^x glycolipid in the microtiter wells in the absence of any inhibitor. This was considered 100% binding. […]

E-selectin = assay: ELISA: inhibition of E-selectin-IgG chimera binding to 2,3 sLe^x glycolipid; set-up: species or system human; conditions: for pIC50: inhibition of binding to 2,3 sLex glycolipid
Excerpt: as §1, §2, §3, §4
as §1, with “was employed” for “is preferably used”, “uses” for “employs”, “USA” for “USA.”
as §5, §6, §7

P-selectin [1] = assay: ELISA: inhibition of P-selectin-IgG chimera binding to 2,3 sLe^x glycolipid; set-up: species or system human; conditions: inhibition of binding to 2,3 sLex glycolipid
Excerpt: as §1, §2, §3, §4
as §1, with “was employed” for “is preferably used”, “uses” for “employs”, “USA” for “USA.”
as §5, §6, §7

P-selectin [2] = assay: Flow cytometric assay: inhibition of P-selectin-IgG binding to HL-60 cells; type: cell-based, human; set-up: unit of the concentration uncertain
Protocol: The interaction of P-selectin and its cellular ligand was studied using a flow cytometric assay (Erbe, D. V. et al., J. Cell Biol. (1993) 120:1227). HL60 cells (maintained in high glucose DME plus 10% Hyclone FBS) were used in this assay. Before staining with P-selectin-IgG the cells were preincubated in Dulbecco's PBS/1% BSA/0.1% sodium azide/1% normal rabbit serum (staining medium) for 30-60 mins on ice. After this initial incubation, 1 μg of P-selectin-IgG was added to 100 μl aliquots of 10^6 cells and incubated for 30-60 mins on ice. The cells were when washed with staining medium and resuspended in 100 μl of staining medium to which was added 2 μl of a phycoerythrin-conjugated F(ab')^2 goat anti-human IgG (Fc specific). The cells were incubated for 15-30 mins on ice, washed twice with staining medium, and resuspended in 0.5 ml of staining medium before flow cytometric analysis on a FACScan (Becton Dickinson & Co., Mountain View, Calif.). To determine that the staining was an interaction of P-selectin with its ligand, the staining was also done in the presence of 10 mM EGTA. To determine the protease sensitivity and the requirement for sialic acid of this interaction, HL-60 cells in D-PBS and 1% BSA were incubated with either trypsin or Arthrobacter or Clostridium sialidases at 37° C. before resuspending in staining medium. To examine the ability of various carbohydrates to inhibit staining, 50 μg/ml fucoidin (Sigma Immunochemicals, St. Louis, Mo.), 50 μg/ml dextran sulfate (Pharmacia Fine Chemicals, Piscataway, N.J.), 10 mg/ml mannose-1-phosphate (Sigma Immunochemicals), or 10 mg/ml mannose-6-phosphate (Sigma Immunochemicals) was added to cells immediately before the addition of the P-selectin chimera. Each carbohydrate was then present until the cells were washed before the addition of the second stage antibody. A potential complication of this FACS assay arose from the use of selectin-IgG chimeras to stain cells which bear human IgG Fc receptors (FcγR; Fanger, M. W., et al., Immunol. Today (1989) 10:92). Adding rabbit IgG (in the form of normal rabbit serum) to the assay medium blocked this binding in most cases.

pIC50 (L-selectin)	pIC50 (E-selectin)	pIC50 (P-selectin [1])	Structure (SMILES)	inhibition of L-selectin binding to 2,3 sLe^x glycolipid (L-selectin)	Inhibition (%) of P-selectin-IgG binding to HL-60 cells (P-selectin [2]; 10 (unit uncertain)) [%]	Inhibition (%) of P-selectin-IgG binding to HL-60 cells (P-selectin [2]; 100 (unit uncertain)) [%]	Inhibition (%) of P-selectin-IgG binding to HL-60 cells (P-selectin [2]; 200 (unit uncertain)) [%]	inhibition of E-selectin binding to 2,3 sLe^x glycolipid (E-selectin; FIG. 4, result in words)
< 2.40	~2.40	> 3.30	C[C@@H]1O[C@@H](CCOc2ccccc2C(=O)O)[C@@H](O)[C@H](O)[C@@H]1O [Compound 68, 1-Deoxy-1-α-(o-Carboxy-Phenoxyethyl)-L-Fucose]					
			CC(=O)N[C@H]1[C@H]([C@H](O)[C@H](O)CO)OC(OCCCCCCOC2O[C@@H](C)[C@@H](O)[C@@H](O)[C@@H]2O)(C(=O)O)C[C@@H]1O (stereo partly drawn) [Compound 15, O-Hexamethylene linked α,β-NeuNAc and α,β-L-Fucopyranose]	blocks L-selectin binding at concentrations lower than 7 and 14				
< 2.40	< 2.40	< 2.40	C[C@@H]1O[C@@H](CCc2ccccc2C(=O)NC(Cc2ccccc2)C(=O)O)[C@@H](O)[C@H](O)[C@@H]1O (stereo partly drawn) [Compound 76, 1-Deoxy-1-α-(o-Carboxy-Phenylethyl)-L-Fucose-Phenylalanine Amide]					
~2.40	< 2.40	2.70	C[C@@H]1O[C@@H](CCOc2cc3c(OCC[C@@H]4O[C@@H](C)[C@@H](O)[C@@H](O)[C@@H]4O)cccc3cc2C(=O)O)[C@@H](O)[C@H](O)[C@@H]1O [Compound 58, 3,5-Di-(1-Deoxy-1-α-Fucosyl-Ethyleneoxy)-2-Naphthoic Acid]					
≥ 2.40	2.70		CCCOCC(CO[C@@H]1O[C@H](CO)[C@H](O)[C@H](OC(C)C(=O)O)[C@H]1O)O[C@@H]1O[C@@H](C)[C@@H](O)[C@@H](O)[C@@H]1O (stereo partly drawn) [Compound 32, 1-O-(3-O-α-carboxyethyl-β-D-galactopyranosyl)-2-O-(α-L-fucopyranosyl)-3-O-(n-propyl)-propane]					
< 2.40	< 2.40	< 2.40	C[C@@H]1O[C@@H](CCOc2cccc(C(=O)O)c2)[C@@H](O)[C@H](O)[C@@H]1O [Compound 69, 1-Deoxy-1-α-(m-Carboxy-Phenoxyethyl)-L-Fucose]					
< 2.40	> 3.30	> 3.30	COc1ccc(-c2c(C(=O)O)oc3cc(OCC[C@@H]4O[C@@H](C)[C@@H](O)[C@@H](O)[C@@H]4O)cc(O)c3c2=O)cc1 [Compound 54, 2-Carboxy-5-Hydroxy-7-(1-Deoxy-1-α-Fucosyl-Ethyleneoxy)-4-Methoxy Isoflavone]					
> 3.00	> 3.30	> 3.30	C[C@@H]1O[C@@H](CCOc2ccc3cc(C(=O)O)ccc3c2)[C@@H](O)[C@H](O)[C@@H]1O [Compound 51, 1-Deoxy-1-α-(2-Carboxy-Naphthyl-6-Oxyethyl)-L-Fucose]					
2.52 to 2.70	2.52 to 2.70	~3.30	C[C@@H]1O[C@@H](OCCCCCCOS(=O)(=O)O)[C@@H](O)[C@H](O)[C@@H]1O [Compound 77, 6-O-sulfo-hexanyl-α-L-fucopyranoside]		50	50	60	
			CC(=O)N[C@H]1[C@H]([C@H](O)[C@H](O)CO)OC(OCCCCCCOC2O[C@@H](C)[C@@H](O)[C@@H](O)[C@@H]2O)(C(=O)O)C[C@@H]1O (stereo partly drawn) [Compound 14, O-Hexamethylene linked α,β-NeuNAc and α,β-L-Fucopyranose]	inhibit L-selectin binding in a concentration dependent manner				inhibit E-selectin binding to 2,3 sLe^x glycolipid
< 2.40	< 2.40	2.40	C[C@@H]1O[C@@H](CCc2ccc(C(=O)NC(Cc3ccccc3)C(=O)O)cc2)[C@@H](O)[C@H](O)[C@@H]1O (stereo partly drawn) [Compound 75, 1-Deoxy-1-α-(p-Carboxy-Phenylethyl)-L-Fucose-Phenylalanine Amide]					
~2.70	< 2.40	> 3.30	C[C@@H]1O[C@@H](CCOc2ccc3cc(OCC[C@@H]4O[C@@H](C)[C@@H](O)[C@@H](O)[C@@H]4O)c(C(=O)O)cc3c2)[C@@H](O)[C@H](O)[C@@H]1O [Compound 57, 3,7-Di-(1-Deoxy-1-α-Fucosyl-Ethyleneoxy)-2-Naphthoic Acid]					
< 2.40	< 2.40	< 2.40	CC(C(=O)OCC1CO1)c1ccc2cc(OCC(O)CO)ccc2c1 (stereo not drawn) [Compound 64]					
< 2.70	> 3.30	> 3.30	C[C@@H]1O[C@@H](CCOc2ccc(C(=O)O)cc2)[C@@H](O)[C@H](O)[C@@H]1O [Compound 67, 1-Deoxy-1-α-(p-Carboxy-Phenoxyethyl)-L-Fucose]					
2.40	< 2.40	< 2.70	COC(=O)C(C)c1ccc2cc(OCC[C@@H]3O[C@@H](C)[C@@H](OC(C)=O)[C@@H](OC(C)=O)[C@@H]3OC(C)=O)ccc2c1 (stereo partly drawn) [Compound 60]					
< 2.40	< 2.40	< 2.40	C[C@@H]1O[C@@H](CCc2cccc(C(=O)NC(Cc3ccccc3)C(=O)O)c2)[C@@H](O)[C@H](O)[C@@H]1O (stereo partly drawn) [Compound 74, 1-Deoxy-1-α-(m-Carboxy-Phenylethyl)-L-Fucose-Phenylalanine Amide]					
	< 2.40		CC(=O)NC1C(O)CC(OC2C(O)C(CO)OC(OCCOC3OC(C)C(O)C(O)C3O)C2O)(C(=O)O)OC1C(O)C(O)CO [Compound 28, [O-(α-L-fucopyranosyl)-ethyl]3-O-(α-Neu5Ac)-β-D-galactopyranoside]					
